“Also recorded” adds a separate entry of the source.
Columns and labels:
Type in all cases: cell-based
[1] = system: mTORC1 over mTORC2; experiment: mTORC1 selectivity over mTORC2 at 24 hrs (Western blot based pS6K1 and pAKT assay); settings: 24 hrs
Method: (§1) Western Blot Based pS6K1 and pAKT Assay at 24 and 48 Hour Timepoints
(§2) 1. Seed six well plate with 500,000 PC3 cells per well and incubate for 20˜24 hour.
(§3) 2. Add compounds into the cell plate. Incubate for 24 to 48 hours.
(§4) 4. Plate is placed on ice and the media is removed via aspiration. The wells are washed with 1 mL of 1× PBS and then fully aspirated.
(§5) 5. 110 μL of 1% Triton Lysis Buffer is added and each well is scraped vigorously.
(§6) 6. Cell homogenates are transferred to 1.5 mL eppendorf tubes on ice and spun down at 4° C. for 10 minutes at 10,000 rpm.
(§7) 9. The membranes were washed 3× with TBS-T with a 5 minute incubation between each wash then incubated with secondary antibody (LiCor IRDye 800 Donkey Anti Rabbit) for at least 30 minutes.
(§8) 10. The membranes were washed 3× with TBS-T with a 5 minute incubation between each wash.
(§9) 11. The gels were then incubated for 5 minutes with PBS at room temperature then imaged using a Li-Cor.
“N/A” stands for “not assayed.”

[2] = system: mTORC1 pathway (pS6K1 T389) in PC3 cells; experiment: Western blot, mTORC1 pathway (pS6K1) in PC3 cells; settings: PC3 cells, 24 hours
Method: as §1, §2, §3, §4, §5, §6, §7, §8, §9
(§10) The methods employed were substantially similar to those described above. Compounds were evaluated in PC3 cells, Jurkat cells, wild-type mouse embryotic fibroblast (MEF) cells, tuberous sclerosis 2 (TSC2) negative (TSC −/−) MEF cells, and tuberous sclerosis 2 (TSC2) positive (TSC +/+) MEF cells. Cells were incubated with compounds of the present invention for various time periods (e.g., 5 minutes, 15 minutes, 30 minutes, 90 minutes, 24 hours, or 48 hours), and evaluated according to known methodologies, such as those herein described.

[3] = system: mTORC2 pathway (Akt phosphorylation) in PC3 cells; experiment: Western blot, mTORC2 pathway (pAkt) in PC3 cells; settings: 24 hours
Method: as §1, §2, §3, §4, §5, §6, §7, §8, §9, §10

[4] = system: pS6K1 (p-p70 S6 Kinase (Thr389)) in MCF-7 cells; experiment: AlphaLISA Ultra pS6K1 Assay; settings: Homo sapiens, 1.5 h; MCF7 cells, 90 min
Procedure, shortened: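 AlphaLISA Ultra read-out (acceptor beads 2 h, then donor beads 2 h) on thawed lysates of MCF-7 cells. Cells had 20–24 h after seeding and a 2 h medium change, then 90 min of compound exposure at 0.5% final DMSO, with lysates stored at −80 °C.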

IC50 [4] | Compound | mTORC1 selective @ 24 hrs [1] | inhibition of the mTORC1 pathway [2] | inhibition of mTORC2 (Akt phosphorylation) [3]
1 to 10 nM | CO[C@@H]1C[C@H](C[C@@H](C)[C@@H]2CC(=O)[C@H](C)/C=C(\C)[C@@H](O)[C@@H](OC)C(=O)[C@H](C)C[C@H](C)/C=C/C=C/C=C(\C)[C@@H](OCCCC(=O)N(C)C)C[C@@H]3CC[C@@H](C)[C@@](O)(O3)C(=O)C(=O)N3CCCC[C@H]3C(=O)O2)CC[C@H]1OCCO [I-62, 4-[[(23E, 25E,27E,28E,35R,36S,37R,38R,40S,42S,44S,45S,46R,47R,57R)-46,57-dihydroxy-45-[(1R)-2-[(1S, 3R,4R)-4-(2-hydroxyethoxy)-3-methoxy-cyclohexyl]-1-methyl-ethyl]-47-methoxy-35, 36,37,38,48,49-hexamethyl-50,51,52,53,54-pentaoxo-69,70-dioxa-58-azatricyclohexatriaconta-23, 25,27(48),28(49)-tetraen-44-yl]oxy]-N,N-dimethyl-butanamide] | YES | strong inhibition | do not inhibit
0.1 to 1 nM | CO[C@@H]1CC(C[C@@H](C)C2CC(=O)[C@H](C)/C=C(\C)[C@@H](O)[C@@H](OC)C(=O)[C@H](C)C[C@H](C)/C=C/C=C/C=C(\C)[C@@H](OCCOCC(F)(F)F)C[C@@H]3CC[C@@H](C)[C@@](O)(O3)C(=O)C(=O)N3CCCC[C@H]3C(=O)O2)CC[C@H]1OCCO (stereo partly drawn) [I-71, (21E,23E,25E,26E,33R,34S,35R,36R,38S,40S,42S,43S,44R,45R,54R)-44, 54-dihydroxy-43-[(1R)-2-[(1S,3R,4R)-4-(2-hydroxyethoxy)-3-methoxy-cyclohexyl]-1-methyl-ethyl]-45-methoxy-33, 34,35,36,46,47-hexamethyl-42-[2-(2,2,2-trifluoroethoxy)ethoxy]-65,66-dioxa-56-azatricyclohexatriaconta-21,23,25(46),26(47)-tetraene-48, 49,50,51,52-pentone] | YES | strong inhibition | do not inhibit
< 0.1 nM | COCCOCCO[C@@H]1C[C@@H]2CC[C@@H](C)[C@@](O)(O2)C(=O)C(=O)N2CCCC[C@H]2C(=O)O[C@H]([C@H](C)C[C@@H]2CC[C@@H](O)[C@H](OC)C2)CC(=O)[C@H](C)/C=C(\C)[C@@H](O)[C@@H](OC)C(=O)[C@H](C)C[C@H](C)/C=C/C=C/C=C/1C [I-119, (22E,24E,26E,27E,33R,34S,35R,36R,38S,40S,43S,44R,45R,54R)-44,54-dihydroxy-43-[(1R)-2-[(1S, 3R,4R)-4-hydroxy-3-methoxy-cyclohexyl]-1-methyl-ethyl]-45-methoxy-42-[R-2-(2-methoxyethoxy)ethoxy]-33, 34,35,36,46,47-hexamethyl-64,65-dioxa-55-azatricyclohexatriaconta-22, 24,26(46),27(47)-tetraene-48,49,50,51,52-pentone] | YES |  | 
< 0.1 nM | COCCOCCO[C@H]1C[C@@H]2CC[C@@H](C)[C@@](O)(O2)C(=O)C(=O)N2CCCC[C@H]2C(=O)O[C@H]([C@H](C)C[C@@H]2CC[C@@H](O)[C@H](OC)C2)CC(=O)[C@H](C)/C=C(\C)[C@@H](O)[C@@H](OC)C(=O)[C@H](C)C[C@H](C)/C=C/C=C/C=C/1C [I-120, (22E,24E,26E,27E,33R,34S,35R,36R,38S,40S,43S,44R,45R,54R)-44, 54-dihydroxy-43-[(1R)-2-[(1S,3R,4R)-4-hydroxy-3-methoxy-cyclohexyl]-I-methyl-ethyl]-45-methoxy-42-[S-2-(2-methoxyethoxy)ethoxy]-33,34,35,36,46,47-hexamethyl-64,65-dioxa-55-azatricyclohexatriaconta-22, 24,26(46),27(47)-tetraene-48,49,50,51,52-pentone] | YES |  | 

Continued, molecule first:

Compound | IC50 [4] | mTORC1 selective @ 24 hrs [1] | inhibition of the mTORC1 pathway [2] | inhibition of mTORC2 (Akt phosphorylation) [3]
CO[C@@H]1C[C@H](C[C@@H](C)[C@@H]2CC(=O)[C@H](C)/C=C(\C)[C@@H](O)[C@@H](OC)C(=O)[C@H](C)C[C@H](C)/C=C/C=C/C=C(\C)[C@@H](OCC(CO)CO)C[C@@H]3CC[C@@H](C)[C@@](O)(O3)C(=O)C(=O)N3CCCC[C@H]3C(=O)O2)CC[C@H]1O [I-5] |  | YES | strong inhibition | do not inhibit
CO[C@@H]1C[C@H](C[C@@H](C)[C@@H]2CC(=O)[C@H](C)/C=C(\C)[C@@H](O)[C@@H](OC)C(=O)[C@H](C)C[C@H](C)/C=C/C=C/C=C(\C)C(OCCOCCOCCOCCOCCOCCOCCOCCOCCOCCOCCO)C[C@@H]3CC[C@@H](C)[C@@](O)(O3)C(=O)C(=O)N3CCCC[C@H]3C(=O)O2)CC[C@H]1O (stereo partly drawn) [I-96, (21E,23E,25E,26E,50R,51S,52R,53R,55S,57S,60S,61R,62R,71R)-61, 71-dihydroxy-59-[2-[2-[2-[2-[2-[2-[2-[2-[2-[2-(2-hydroxyethoxy)ethoxy]ethoxy]ethoxy]ethoxy]ethoxy]ethoxy]ethoxy]ethoxy]ethoxy]ethoxy]-60-[(1R)-2-[(1S,3R,4R)-4-hydroxy-3-methoxy-cyclohexyl]-1-methyl-ethyl]-62-methoxy-50, 51,52,53,63,64-hexamethyl-82,83-dioxa-72-azatricyclohexatriaconta-21, 23,25(63),26(64)-tetraene-65,66,67,68,69-pentone] | 0.1 to 1 nM | YES | strong inhibition | do not inhibit
CO[C@@H]1C[C@H](C[C@@H](C)[C@@H]2CC(=O)[C@H](C)/C=C(\C)[C@@H](O)[C@@H](OC)C(=O)[C@H](C)C[C@H](C)/C=C/C=C/C=C(\C)C(OCCOCCOCCOCCOCCOCCOCCO)C[C@@H]3CC[C@@H](C)[C@@](O)(O3)C(=O)C(=O)N3CCCC[C@H]3C(=O)O2)CC[C@H]1OCCO (stereo partly drawn) [I-99, (21E,23E,25E,26E,44R,45S,46R,47R,49S,51S,54S,55R,56R,65R)-55, 65-dihydroxy-53-[2-[2-[2-[2-[2-[2-(2-hydroxyethoxy)ethoxy]ethoxy]ethoxy]ethoxy]ethoxy]ethoxy]-54-[(1R)-2-[(1S, 3R,4R)-4-(2-hydroxyethoxy)-3-methoxy-cyclohexyl]-1-methyl-ethyl]-56-methoxy-44, 45,46,47,57,58-hexamethyl-76,77-dioxa-66-azatricyclohexatriaconta-21, 23,25(57),26(58)-tetraene-59,60,61,62,63-pentone] | 0.1 to 1 nM | YES | appreciable concentration dependent inhibition; also recorded: moderate concentration dependent inhibition | do not inhibit
CO[C@@H]1C[C@H](C[C@@H](C)[C@@H]2CC(=O)[C@H](C)/C=C(\C)[C@@H](O)[C@@H](OC)C(=O)[C@H](C)C[C@H](C)/C=C/C=C/C=C(\C)C(OCC(COCCC#N)(COCCC#N)COCCC#N)C[C@@H]3CC[C@@H](C)[C@@](O)(O3)C(=O)C(=O)N3CCCC[C@H]3C(=O)O2)CC[C@H]1O (stereo partly drawn) [I-101, 3-[2,2-bis(2-cyanoethoxymethyl)-3-[[(21E, 23E,25E,26E,41R,42S,43R,44R,46S,48S,51S,52R,53R,62R)-52,62-dihydroxy-51-[(1R)-2-[(1S, 3R,4R)-4-hydroxy-3-methoxy-cyclohexyl]-1-methyl-ethyl]-53-methoxy-41, 42,43,44,54,55-hexamethyl-56,57,58,59,60-pentaoxo-76,77-dioxa-67-azatricyclohexatriaconta-21, 23,25(54),26(55)-tetraen-50-yl]oxy]propoxy]propanenitrile] | 0.1 to 1 nM | YES | strong inhibition; also recorded: appreciable concentration dependent inhibition; also recorded: moderate concentration dependent inhibition | do not inhibit
CO[C@H]1C[C@@H]2CC[C@@H](C)[C@@](O)(O2)C(=O)C(=O)N2CCCC[C@H]2C(=O)O[C@H]([C@H](C)C[C@@H]2CC[C@@H](OP(C)(C)=O)[C@H](OC)C2)CC(=O)[C@H](C)/C=C(\C)[C@@H](O)[C@@H](OC)C(=O)[C@H](C)C[C@H](C)/C=C/C=C/C=C/1C [ridaforolimus, reference compound] |  |  | strong inhibition | dose dependent inhibition
CO[C@H]1C[C@@H]2CC[C@@H](C)[C@@](O)(O2)C(=O)C(=O)N2CCCC[C@H]2C(=O)O[C@H]([C@H](C)C[C@@H]2CC[C@@H](OC(=O)C(C)(CO)CO)[C@H](OC)C2)CC(=O)[C@H](C)/C=C(\C)[C@@H](O)[C@@H](OC)C(=O)[C@H](C)C[C@H](C)/C=C/C=C/C=C/1C [temsirolimus, reference compound] |  |  | strong inhibition | dose dependent inhibition

Source: patent US11944605B2, “Rapamycin analogs and uses thereof” (Janssen Pharmaceutica NV, priority 2018, dated 2024)
